Drawing on patent publication US20230295200A1 (REGENTS OF THE UNIVERSITY OF MICHIGAN, priority 2022, published 2023), this text covers Ki for 15 molecules.

SMILES strings stand for the structures.

The target in the experiment is T1, STAT6 protein (Homo sapiens, UniProt P42226).
T1 sequence (P42226 1-847): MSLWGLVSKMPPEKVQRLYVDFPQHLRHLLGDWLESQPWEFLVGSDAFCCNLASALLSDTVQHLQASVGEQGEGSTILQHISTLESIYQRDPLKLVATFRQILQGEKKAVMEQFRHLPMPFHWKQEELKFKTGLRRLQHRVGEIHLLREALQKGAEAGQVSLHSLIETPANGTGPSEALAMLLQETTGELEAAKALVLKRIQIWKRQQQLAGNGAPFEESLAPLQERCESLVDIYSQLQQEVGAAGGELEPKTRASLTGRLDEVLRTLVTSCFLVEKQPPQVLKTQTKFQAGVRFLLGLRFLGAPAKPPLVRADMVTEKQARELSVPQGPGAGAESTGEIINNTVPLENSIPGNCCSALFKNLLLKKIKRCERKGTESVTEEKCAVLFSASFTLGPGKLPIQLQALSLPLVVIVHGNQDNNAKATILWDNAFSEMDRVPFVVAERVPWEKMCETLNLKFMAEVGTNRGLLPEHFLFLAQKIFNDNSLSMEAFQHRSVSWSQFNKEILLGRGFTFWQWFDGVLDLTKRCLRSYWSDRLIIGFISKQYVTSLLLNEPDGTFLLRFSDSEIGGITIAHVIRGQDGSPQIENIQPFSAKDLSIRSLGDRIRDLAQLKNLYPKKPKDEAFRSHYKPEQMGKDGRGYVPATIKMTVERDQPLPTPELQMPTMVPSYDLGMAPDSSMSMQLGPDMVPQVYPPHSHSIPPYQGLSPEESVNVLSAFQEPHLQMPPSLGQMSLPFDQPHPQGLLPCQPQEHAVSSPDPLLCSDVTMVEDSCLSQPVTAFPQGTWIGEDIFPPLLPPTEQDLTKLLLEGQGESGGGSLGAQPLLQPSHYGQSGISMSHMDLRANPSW
The experiment in a line: Fluorescence polarization (FP) binding assay, STAT6. As to conditions: FP competition, 5 nM fluorescein-labeled tracer, 200 nM protein, PBS pH7.4; read-out: Binding STAT6. In outline: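 Tracer (fluorescein-labeled, 5 nM) was mixed with 200 nM STAT5 and/or STAT6 in PBS pH 7.4 plus 0.01% BGG, 0.01% Tween-20, 2 mM DTT. After 15 min shaking and 1 h at room temperature to equilibrium, polarization was measured and constants derived by nonlinear fitting.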
For orientation: In fluorescence polarisation assays a small probe gives low polarisation when free and higher when bound to something large.
Regarding `CN1CCC(C[C@H](NC(=O)c2cc3cc(C(F)(F)P(=O)(O)O)ccc3s2)C(=O)N2CCC[C@H]2C(=O)N2CCO[C@H](c3ccccc3)C2)CC1` [Compound 291, (difluoro(2-(((S)-3-(1-methylpiperidin-4-yl)-1-oxo-1-((S)-2-((R)-2-phenylmorpholine-4-carbonyl)pyrrolidin-1-yl)propan-2-yl)carbamoyl)benzo[b]thiophen-5-yl)methyl)phosphonic acid], the Ki fell in the range of 100 to 1000 nM.
To `CCN1CCC(C[C@H](NC(=O)c2cc3cc(C(F)(F)P(=O)(O)O)ccc3s2)C(=O)N2CCC[C@H]2C(=O)N2CCO[C@H](c3ccccc3)C2)CC1` [Compound 292, ((2-(((S)-3-(1-ethylpiperidin-4-yl)-1-oxo-1-((S)-2-((R)-2-phenylmorpholine-4-carbonyl)pyrrolidin-1-yl)propan-2-yl)carbamoyl)benzo[b]thiophen-5-yl)difluoromethyl)phosphonic acid] belongs 100 to 1000 nM.
To `CC(C)CCN1CCC(C[C@H](NC(=O)c2cc3cc(C(F)(F)P(=O)(O)O)ccc3s2)C(=O)N2CCC[C@H]2C(=O)N2CCO[C@H](c3ccccc3)C2)CC1` [Compound 293, (difluoro(2-(((S)-3-(1-isopentylpiperidin-4-yl)-1-oxo-1-((S)-2-((R)-2-phenylmorpholine-4-carbonyl)pyrrolidin-1-yl)propan-2-yl)carbamoyl)benzo[b]thiophen-5-yl)methyl)phosphonic acid] belongs 100 to 1000 nM; to `O=C(N[C@@H](CC1CCN(CC2CCCCC2)CC1)C(=O)N1CCC[C@H]1C(=O)N1CCO[C@H](c2ccccc2)C1)c1cc2cc(C(F)(F)P(=O)(O)O)ccc2s1` [Compound 294, ((2-(((S)-3-(1-(cyclohexylmethyl)piperidin-4-yl)-1-oxo-1-((S)-2-((R)-2-phenylmorpholine-4-carbonyl)pyrrolidin-1-yl)propan-2-yl)carbamoyl)benzo[b]thiophen-5-yl)difluoromethyl)phosphonic acid], 100 to 1000 nM.
To `CCC(CC)CN1CCC(C[C@H](NC(=O)c2cc3cc(C(F)(F)P(=O)(O)O)ccc3s2)C(=O)N2CCC[C@H]2C(=O)N2CCO[C@H](c3ccccc3)C2)CC1` [Compound 295, ((2-(((S)-3-(1-(2-ethylbutyl)piperidin-4-yl)-1-oxo-1-((S)-2-((R)-2-phenylmorpholine-4-carbonyl)pyrrolidin-1-yl)propan-2-yl)carbamoyl)benzo[b]thiophen-5-yl)difluoromethyl)phosphonic acid] belongs 100 to 1000 nM; to `O=C(N[C@@H](CC1CCN(CCc2ccccc2)CC1)C(=O)N1CCC[C@H]1C(=O)N1CCO[C@H](c2ccccc2)C1)c1cc2cc(C(F)(F)P(=O)(O)O)ccc2s1` [Compound 296, (difluoro(2-(((S)-1-oxo-3-(1-phenethylpiperidin-4-yl)-1-((S)-2-((R)-2-phenylmorpholine-4-carbonyl)pyrrolidin-1-yl)propan-2-yl)carbamoyl)benzo[b]thiophen-5-yl)methyl)phosphonic acid], 100 to 1000 nM.
As to `O=C(N[C@@H](CC1CCN(CCCc2ccccc2)CC1)C(=O)N1CCC[C@H]1C(=O)N1CCO[C@H](c2ccccc2)C1)c1cc2cc(C(F)(F)P(=O)(O)O)ccc2s1` [Compound 297, (difluoro(2-(((S)-1-oxo-1-((S)-2-((R)-2-phenylmorpholine-4-carbonyl)pyrrolidin-1-yl)-3-(1-(3-phenylpropyl)piperidin-4-yl)propan-2-yl)carbamoyl)benzo[b]thiophen-5-yl)methyl)phosphonic acid], the Ki lay in the range of 100 to 1000 nM.
As for `CC(C)(C)[C@H](NC(=O)c1cc2cc(C(F)(F)P(=O)(O)O)ccc2s1)C(=O)N1C[C@H](Oc2ccccc2)C[C@H]1C(=O)N1CCO[C@H](c2ccccc2)C1` [Compound 299, ((2-(((S)-3,3-dimethyl-1-oxo-1-((2S,4R)-4-phenoxy-2-((R)-2-phenylmorpholine-4-carbonyl)pyrrolidin-1-yl)butan-2-yl)carbamoyl)benzo[b]thiophen-5-yl)difluoromethyl)phosphonic acid], the figure is 100 to 1000 nM; as for `CC(C)(C)[C@H](NC(=O)c1cc2cc(C(F)(F)P(=O)(O)O)ccc2s1)C(=O)N1C[C@H](OCc2ccccc2)C[C@H]1C(=O)N1CCO[C@H](c2ccccc2)C1` [Compound 300, ((2-(((S)-1-((2S,4R)-4-(benzyloxy)-2-((R)-2-phenylmorpholine-4-carbonyl)pyrrolidin-1-yl)-3,3-dimethyl-1-oxobutan-2-yl)carbamoyl)benzo[b]thiophen-5-yl)difluoromethyl)phosphonic acid], < 100 nM.
With `CC(C)(C)[C@H](NC(=O)c1cc2cc(C(F)(F)P(=O)(O)O)ccc2s1)C(=O)N1C[C@@H](Oc2ccccc2)C[C@H]1C(=O)N1CCO[C@H](c2ccccc2)C1` [Compound 301, ((2-(((S)-3,3-dimethyl-1-oxo-1-((2S,4S)-4-phenoxy-2-((R)-2-phenylmorpholine-4-carbonyl)pyrrolidin-1-yl)butan-2-yl)carbamoyl)benzo[b]thiophen-5-yl)difluoromethyl)phosphonic acid], the Ki is < 100 nM.
`CN1CC[C@H]2CC[C@@H](C(=O)N3CCc4ccccc4C3)N2C(=O)[C@@H](NC(=O)c2cc3cc(C(F)(F)P(=O)(O)O)ccc3[nH]2)C1` [Compound 330, (difluoro(2-(((5S,8S,10aR)-3-methyl-6-oxo-8-(1,2,3,4-tetrahydroisoquinoline-2-carbonyl)decahydropyrrolo[1,2-a][1,5]diazocin-5-yl)carbamoyl)-1H-indol-5-yl)methyl)phosphonic acid]: the Ki is > 10000 nM.
As for `CN1CC[C@H]2CC[C@@H](C(=O)N3CCc4ccccc4C3)N2C(=O)[C@@H](NC(=O)c2cc3cc(C(F)(F)P(=O)(O)O)ccc3s2)C1` [Compound 331, (difluoro(2-(((5S,8S,10aR)-3-methyl-6-oxo-8-(1,2,3,4-tetrahydroisoquinoline-2-carbonyl)decahydropyrrolo[1,2-a][1,5]diazocin-5-yl)carbamoyl)benzo[b]thiophen-5-yl)methyl)phosphonic acid], the figure is > 10000 nM; as for `CC(=O)N1CC[C@H]2CC[C@@H](C(=O)N3CCc4ccccc4C3)N2C(=O)[C@@H](NC(=O)c2cc3cc(C(F)(F)P(=O)(O)O)ccc3[nH]2)C1` [Compound 332, ((2-(((5S,8S,10aR)-3-acetyl-6-oxo-8-(1,2,3,4-tetrahydroisoquinoline-2-carbonyl)decahydropyrrolo[1,2-a][1,5]diazocin-5-yl)carbamoyl)-1H-indol-5-yl)difluoromethyl)phosphonic acid], > 10000 nM; as for `CC(=O)N1CC[C@H]2CC[C@@H](C(=O)N3CCc4ccccc4C3)N2C(=O)[C@@H](NC(=O)c2cc3cc(C(F)(F)P(=O)(O)O)ccc3s2)C1` [Compound 333, ((2-(((5S,8S,10aR)-3-acetyl-6-oxo-8-(1,2,3,4-tetrahydroisoquinoline-2-carbonyl)decahydropyrrolo[1,2-a][1,5]diazocin-5-yl)carbamoyl)benzo[b]thiophen-5-yl)difluoromethyl)phosphonic acid], > 10000 nM.
Turning to `CC(=O)N1CC[C@H]2CC[C@@H](C(=O)N3CCc4ccccc4C3)N2C(=O)[C@@H](NC(=O)c2ccc3ccc(C(F)(F)P(=O)(O)O)cc3c2)C1` [Compound 334, ((7-(((5S,8S,10aR)-3-acetyl-6-oxo-8-(1,2,3,4-tetrahydroisoquinoline-2-carbonyl)decahydropyrrolo[1,2-a][1,5]diazocin-5-yl)carbamoyl)naphthalen-2-yl)difluoromethyl)phosphonic acid], the Ki was > 10000 nM.
